Source: patent publication US20230085307A1, “PYRIDAZINONE COMPOUND AND HERBICIDE” (NISSAN CHEMICAL CORPORATION, priority 2019, published 2023)

Tested on: Japanese bulrush
Test: Test Example 1: herbicidal activity, application before weed generation under submerged conditions (Table 16, symbol B)
Type: in vivo, Japanese bulrush (Schoenoplectus juncoides)
Details: amount of applied herbicide 320 g/ha
Outline: (§1)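 Alluvial soil was flooded to 4 cm depth, weed seeds were sown mixed and 2.5-leaf rice seedlings were transplanted. On sowing day, the compound's emulsion, diluted in water to a set dose, was applied to the water surface. Plants grew at 25–30 °C and were scored 0–5 after three weeks.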

Compound	Herbicidal effect, B: Japanese bulrush
CCCCOc1ccc2c(-c3c(O)c(C)nn(C)c3=O)c(-c3ccccc3OC)sc2c1 [3-105]	5 (Herbicidal rate of 90% or more (almost completely withered))
COc1ccccc1-c1sc2cc(OCC(C)C)ccc2c1-c1c(O)c(C)nn(C)c1=O [3-107]	5 (Herbicidal rate of 90% or more (almost completely withered))

Tested on: oval-leafed pondweed
Test: Test Example 1: herbicidal activity, application before weed generation under submerged conditions (Table 16, symbol C)
Type: in vivo, oval-leafed pondweed (Monochoria vaginalis)
Details: amount of applied herbicide 320 g/ha
Outline: as §1

Compound	Herbicidal effect, C: oval-leafed pondweed
CCCCOc1ccc2c(-c3c(O)c(C)nn(C)c3=O)c(-c3ccccc3OC)sc2c1 [3-105]	5 (Herbicidal rate of 90% or more (almost completely withered))
COc1ccccc1-c1sc2cc(OCC(C)C)ccc2c1-c1c(O)c(C)nn(C)c1=O [3-107]	5 (Herbicidal rate of 90% or more (almost completely withered))

Tested on: late watergrass
Test: Test Example 2: herbicidal activity, application during weed generation under submerged conditions (Table 17, symbol A)
Type: in vivo, late watergrass (Echinochloa oryzicola)
Details: AAH 320 g/ha; application during weed generation, submerged conditions
Outline: (§2)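 Mixed weed seedlings in alluvial soil under a 4 cm water layer, greenhouse-grown at 25–30° C. Compound given as a diluted emulsion into the floodwater at the 1–2 leaf stage; response graded after three weeks.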

Compound	herbicidal effect rating, A: late watergrass
CCCCOc1ccc2c(-c3c(O)c(C)nn(C)c3=O)c(-c3ccccc3OC)sc2c1 [3-105]	3 (Herbicidal rate of 40% or more and less than 70%)
COc1ccccc1-c1sc2cc(OCC(C)C)ccc2c1-c1c(O)c(C)nn(C)c1=O [3-107]	3 (Herbicidal rate of 40% or more and less than 70%)

Tested on: Japanese bulrush
Test: Test Example 2: herbicidal activity, application during weed generation under submerged conditions (Table 17, symbol B)
Type: in vivo, Japanese bulrush (Schoenoplectus juncoides)
Details: AAH 320 g/ha; application during weed generation, submerged conditions
Outline: as §2

Compound	herbicidal effect rating, B: Japanese bulrush
CCCCOc1ccc2c(-c3c(O)c(C)nn(C)c3=O)c(-c3ccccc3OC)sc2c1 [3-105]	3 (Herbicidal rate of 40% or more and less than 70%)
COc1ccccc1-c1sc2cc(OCC(C)C)ccc2c1-c1c(O)c(C)nn(C)c1=O [3-107]	5 (Herbicidal rate of 90% or more (almost completely withered))

Tested on: rice flat sedge
Test: Test Example 3: herbicidal effect by foliage application, Wagner pot (Table 18, symbol E)
Type: in vivo, rice flat sedge (Cyperus iria)
Details: 320 g/ha
Outline: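 Plants were sown in alluvial soil held under 0.1–0.5 cm standing water and grown 14 days in a greenhouse at 25–30 °C. An emulsifiable formulation, water-diluted to the set dose, was then sprayed onto the foliage, and effects were scored three weeks later using previously defined criteria.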

Compound	herbicidal effect on rice flat sedge (E)
CCCCOc1ccc2c(-c3c(O)c(C)nn(C)c3=O)c(-c3ccccc3OC)sc2c1 [3-105]	4 (Herbicidal rate of 70% or more and less than 90%)
COc1ccccc1-c1sc2cc(OCC(C)C)ccc2c1-c1c(O)c(C)nn(C)c1=O [3-107]	4 (Herbicidal rate of 70% or more and less than 90%)

Tested on: wild oat
Test: Test Example 4: herbicidal effect by soil treatment (Table 19, symbol I)
Type: in vivo, wild oat (Avena fatua)
Details: amount of applied herbicide 320 g/ha
Outline: (§3)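 Soil-surface application: an emulsion agent diluted with water to the predetermined dose is sprayed uniformly over seeds lying under roughly 1.5 cm of sterilized diluvial soil. Boxes stay in a greenhouse at 25° C. to 30° C. Three weeks later, each species is graded on previously defined criteria.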

Compound	I: wild oat, herbicidal effect grade
CCCCOc1ccc2c(-c3c(O)c(C)nn(C)c3=O)c(-c3ccccc3OC)sc2c1 [3-105]	0 (Herbicidal rate of 5% or less (almost no effect))
COc1ccccc1-c1sc2cc(OCC(C)C)ccc2c1-c1c(O)c(C)nn(C)c1=O [3-107]	0 (Herbicidal rate of 5% or less (almost no effect))

Tested on: Italian ryegrass
Test: Test Example 4: herbicidal effect by soil treatment (Table 19, symbol K)
Type: in vivo, Italian ryegrass (Lolium multiflorum)
Details: amount of applied herbicide 320 g/ha
Outline: as §3

Compound	K: Italian ryegrass, herbicidal effect grade
CCCCOc1ccc2c(-c3c(O)c(C)nn(C)c3=O)c(-c3ccccc3OC)sc2c1 [3-105]	5 (Herbicidal rate of 90% or more (almost completely withered))
COc1ccccc1-c1sc2cc(OCC(C)C)ccc2c1-c1c(O)c(C)nn(C)c1=O [3-107]	5 (Herbicidal rate of 90% or more (almost completely withered))

Tested on: velvetleaf
Test: Test Example 4: herbicidal effect by soil treatment (Table 19, symbol M)
Type: in vivo, velvetleaf (Abutilon theophrasti)
Details: amount of applied herbicide 320 g/ha
Outline: as §3

Compound	M: velvetleaf, herbicidal effect grade
CCCCOc1ccc2c(-c3c(O)c(C)nn(C)c3=O)c(-c3ccccc3OC)sc2c1 [3-105]	0 (Herbicidal rate of 5% or less (almost no effect))
COc1ccccc1-c1sc2cc(OCC(C)C)ccc2c1-c1c(O)c(C)nn(C)c1=O [3-107]	1 (Herbicidal rate of 5% or more and less than 20%)

Tested on: lambsquarters
Test: Test Example 4: herbicidal effect by soil treatment (Table 19, symbol O)
Type: in vivo, lambsquarters (Chenopodium album)
Details: amount of applied herbicide 320 g/ha
Outline: as §3

Compound	O: lambsquarters, herbicidal effect grade
CCCCOc1ccc2c(-c3c(O)c(C)nn(C)c3=O)c(-c3ccccc3OC)sc2c1 [3-105]	3 (Herbicidal rate of 40% or more and less than 70%)
COc1ccccc1-c1sc2cc(OCC(C)C)ccc2c1-c1c(O)c(C)nn(C)c1=O [3-107]	5 (Herbicidal rate of 90% or more (almost completely withered))

Tested on: persian speedwell
Test: Test Example 4: herbicidal effect by soil treatment (Table 19, symbol R)
Type: in vivo, Persian speedwell (Veronica persica)
Details: amount of applied herbicide 320 g/ha
Outline: as §3

Compound	R: persian speedwell, herbicidal effect grade
CCCCOc1ccc2c(-c3c(O)c(C)nn(C)c3=O)c(-c3ccccc3OC)sc2c1 [3-105]	5 (Herbicidal rate of 90% or more (almost completely withered))
COc1ccccc1-c1sc2cc(OCC(C)C)ccc2c1-c1c(O)c(C)nn(C)c1=O [3-107]	4 (Herbicidal rate of 70% or more and less than 90%)

Tested on: barnyard grass
Test: Test Example 5: herbicidal effect by foliage application, plastic box (Table 20, symbol H)
Type: in vivo, barnyard grass (Echinochloa crus-galli)
Details: foliage application, 320 g/ha, three weeks after application
Outline: (§4)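 Sow seeds spot-wise in sterilized diluvial soil; cover with ~1.5 cm soil. Grow 14 days in greenhouse, 25° C. to 30° C. Spray foliage with emulsion diluted to predetermined amount. Rate effect after 3 weeks.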

Compound	H: barnyard grass, herbicidal effect grade
CCCCOc1ccc2c(-c3c(O)c(C)nn(C)c3=O)c(-c3ccccc3OC)sc2c1 [3-105]	4 (Herbicidal rate of 70% or more and less than 90%)
COc1ccccc1-c1sc2cc(OCC(C)C)ccc2c1-c1c(O)c(C)nn(C)c1=O [3-107]	3 (Herbicidal rate of 40% or more and less than 70%)

Tested on: wild oat
Test: Test Example 5: herbicidal effect by foliage application, plastic box (Table 20, symbol I)
Type: in vivo, wild oat (Avena fatua)
Details: foliage application, 320 g/ha, three weeks after application
Outline: as §4

Compound	I: wild oat, herbicidal effect grade
CCCCOc1ccc2c(-c3c(O)c(C)nn(C)c3=O)c(-c3ccccc3OC)sc2c1 [3-105]	4 (Herbicidal rate of 70% or more and less than 90%)
COc1ccccc1-c1sc2cc(OCC(C)C)ccc2c1-c1c(O)c(C)nn(C)c1=O [3-107]	0 (Herbicidal rate of 5% or less (almost no effect))

Tested on: Italian ryegrass
Test: Test Example 5: herbicidal effect by foliage application, plastic box (Table 20, symbol K)
Type: in vivo, Italian ryegrass (Lolium multiflorum)
Details: foliage application, 320 g/ha, three weeks after application
Outline: as §4

Compound	K: Italian ryegrass, herbicidal effect grade
CCCCOc1ccc2c(-c3c(O)c(C)nn(C)c3=O)c(-c3ccccc3OC)sc2c1 [3-105]	5 (Herbicidal rate of 90% or more (almost completely withered))
COc1ccccc1-c1sc2cc(OCC(C)C)ccc2c1-c1c(O)c(C)nn(C)c1=O [3-107]	5 (Herbicidal rate of 90% or more (almost completely withered))

Tested on: windgrass
Test: Test Example 5: herbicidal effect by foliage application, plastic box (Table 20, symbol L)
Type: in vivo, windgrass (Apera spica-venti)
Details: foliage application, 320 g/ha, three weeks after application
Outline: as §4

Compound	L: windgrass, herbicidal effect grade
CCCCOc1ccc2c(-c3c(O)c(C)nn(C)c3=O)c(-c3ccccc3OC)sc2c1 [3-105]	5 (Herbicidal rate of 90% or more (almost completely withered))
COc1ccccc1-c1sc2cc(OCC(C)C)ccc2c1-c1c(O)c(C)nn(C)c1=O [3-107]	5 (Herbicidal rate of 90% or more (almost completely withered))

Tested on: velvetleaf
Test: Test Example 5: herbicidal effect by foliage application, plastic box (Table 20, symbol M)
Type: in vivo, velvetleaf (Abutilon theophrasti)
Details: foliage application, 320 g/ha, three weeks after application
Outline: as §4

Compound	M: velvetleaf, herbicidal effect grade
CCCCOc1ccc2c(-c3c(O)c(C)nn(C)c3=O)c(-c3ccccc3OC)sc2c1 [3-105]	5 (Herbicidal rate of 90% or more (almost completely withered))
COc1ccccc1-c1sc2cc(OCC(C)C)ccc2c1-c1c(O)c(C)nn(C)c1=O [3-107]	5 (Herbicidal rate of 90% or more (almost completely withered))

Tested on: lambsquarters
Test: Test Example 5: herbicidal effect by foliage application, plastic box (Table 20, symbol O)
Type: in vivo, lambsquarters (Chenopodium album)
Details: foliage application, 320 g/ha, three weeks after application
Outline: as §4

Compound	O: lambsquarters, herbicidal effect grade
CCCCOc1ccc2c(-c3c(O)c(C)nn(C)c3=O)c(-c3ccccc3OC)sc2c1 [3-105]	5 (Herbicidal rate of 90% or more (almost completely withered))
COc1ccccc1-c1sc2cc(OCC(C)C)ccc2c1-c1c(O)c(C)nn(C)c1=O [3-107]	5 (Herbicidal rate of 90% or more (almost completely withered))

Tested on: chickweed
Test: Test Example 5: herbicidal effect by foliage application, plastic box (Table 20, symbol P)
Type: in vivo, common chickweed (Stellaria media)
Details: foliage application, 320 g/ha, three weeks after application
Outline: as §4

Compound	P: chickweed, herbicidal effect grade
CCCCOc1ccc2c(-c3c(O)c(C)nn(C)c3=O)c(-c3ccccc3OC)sc2c1 [3-105]	5 (Herbicidal rate of 90% or more (almost completely withered))
COc1ccccc1-c1sc2cc(OCC(C)C)ccc2c1-c1c(O)c(C)nn(C)c1=O [3-107]	5 (Herbicidal rate of 90% or more (almost completely withered))
